According to patent publication US9670227B2, “Thienopyrimidine derivatives, a process for their preparation and pharmaceutical compositions containing them” (LES LABORATOIRES SERVIER, priority 2013, dated 2017):

How the values were obtained:
Mcl-1 protein = Mcl-1 protein (UniProtKB primary accession number: Q07820) (Homo sapiens, UniProt Q07820); assay: Inhibition of Mcl-1 by fluorescence polarisation, Method 1; type: binding; settings: fluorescence polarisation test; Method 2 values are underlined in the patent (underlining not visible here); read-out: IC50 (M) Mcl-1 FP
Mcl-1 protein, sequence (Q07820 whole entry): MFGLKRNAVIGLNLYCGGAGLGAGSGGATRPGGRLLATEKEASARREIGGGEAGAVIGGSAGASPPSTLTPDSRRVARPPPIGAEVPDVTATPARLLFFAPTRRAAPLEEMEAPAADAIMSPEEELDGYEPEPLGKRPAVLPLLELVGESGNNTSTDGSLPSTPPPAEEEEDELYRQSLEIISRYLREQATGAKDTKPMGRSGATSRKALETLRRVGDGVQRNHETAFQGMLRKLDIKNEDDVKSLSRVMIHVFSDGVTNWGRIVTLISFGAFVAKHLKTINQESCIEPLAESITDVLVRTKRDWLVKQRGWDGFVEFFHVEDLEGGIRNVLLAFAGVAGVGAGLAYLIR
How it was run: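 An 11-point DMSO dilution of compound is mixed with buffer (10 mM HEPES, 150 mM NaCl, 0.05% Tween 20, pH 7.4) carrying 1 nM fluorescein-labelled ligand and 5 nM Mcl-1, final concentrations. Displacement is monitored by fluorescence polarisation.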

[1] = test system: H929 multiple myeloma tumour line; assay: In vitro cytotoxicity, Microculture Tetrazolium Assay; type: cell-based; settings: Homo sapiens, NCI-H929, 48 h, H929 cells, 48 hours exposure, MTT; read-out: IC50 (μM) MTT H929
Experimental: The cytotoxicity studies were carried out on the H929 multiple myeloma tumour line.
The cells are distributed onto microplates and exposed to the test compounds for 48 hours.

Row | SMILES | IC50 (Mcl-1 protein) [M] | IC50 [1] [µM]
1 | Cc1c(-c2c(-c3ccc(F)o3)sc3ncnc(OC(Cc4ccccc4OCc4ccnc(C(F)(F)F)n4)C(=O)O)c23)ccc(OCCN2CCN(C)CC2)c1Cl [Example 169, (2R)-2-{[(5Sa)-5-{3-chloro-2-methyl-4-[2-(4-methylpiperazin-1-yl)ethoxy]phenyl}-6-(5-fluorofuran-2-yl)thieno[2,3-d]pyrimidin-4-yl]oxy}-3-(2-{[2-(trifluoromethyl)pyrimidin-4-yl]methoxy}phenyl)propanoic acid] | 9e-09 | 0.009
2 | Cc1c(-c2c(-c3ccc(F)o3)sc3ncnc(OC(Cc4ccccc4OCc4ccnc(OCC(F)(F)F)n4)C(=O)O)c23)ccc(OCCN2CCN(C)CC2)c1Cl [Example 178, (2R)-2-{[(5Sa)-5-{3-chloro-2-methyl-4-[2-(4-methylpiperazin-1-yl)ethoxy]phenyl}-6-(5-fluorofuran-2-yl)thieno[2,3-d]pyrimidin-4-yl]oxy}-3-(2-{[2-(2,2,2-trifluoroethoxy)pyrimidin-4-yl]methoxy}phenyl)propanoic acid] | 6.3e-09 | 0.002
3 | Cc1c(-c2c(-c3ccc(F)o3)sc3ncnc(OC(Cc4ccccc4OCc4cncnc4)C(=O)O)c23)ccc(OCCN2CCN(C)CC2)c1Cl [Example 190, (2R)-2-{[(5Sa)-5-{3-chloro-2-methyl-4-[2-(4-methylpiperazin-1-yl)ethoxy]phenyl}-6-(5-fluorofuran-2-yl)thieno[2,3-d]pyrimidin-4-yl]oxy}-3-[2-(pyrimidin-5-ylmethoxy)phenyl]propanoic acid] | 7.5e-09 | 0.037
4 | Cc1c(-c2c(-c3ccc(F)o3)sc3ncnc(OC(Cc4ccccc4OCc4cocn4)C(=O)O)c23)ccc(OCCN2CCN(C)CC2)c1Cl [Example 191, (2R)-2-{[(5Sa)-5-{3-chloro-2-methyl-4-[2-(4-methylpiperazin-1-yl)ethoxy]phenyl}-6-(5-fluorofuran-2-yl)thieno[2,3-d]pyrimidin-4-yl]oxy}-3-[2-(1,3-oxazol-4-ylmethoxy)phenyl]propanoic acid] | 6.5e-09 | 0.063
5 | Cc1c(-c2c(-c3ccc(F)o3)sc3ncnc(OC(Cc4ccccc4OCCN(C)C)C(=O)O)c23)ccc(OCCN2CCN(C)CC2)c1Cl [Example 192, (2R)-2-{[(5Sa)-5-{3-chloro-2-methyl-4-[2-(4-methylpiperazin-1-yl)ethoxy]phenyl}-6-(5-fluorofuran-2-yl)thieno[2,3-d]pyrimidin-4-yl]oxy}-3-{2-[2-(dimethylamino)ethoxy]phenyl}propanoic acid] | 7.7e-09 | 0.848
6 | COCCOc1ccccc1CC(Oc1ncnc2sc(-c3ccc(F)o3)c(-c3ccc(OCCN4CCN(C)CC4)c(Cl)c3C)c12)C(=O)O [Example 194, (2R)-2-{[(5Sa)-5-{3-chloro-2-methyl-4-[2-(4-methylpiperazin-1-yl)ethoxy]phenyl}-6-(5-fluorofuran-2-yl)thieno[2,3-d]pyrimidin-4-yl]oxy}-3-[2-(2-methoxyethoxy)phenyl]propanoic acid] | 8e-09 | 0.058
7 | COc1ccccc1CC(Oc1ncnc2sc(-c3ccc(F)o3)c(-c3ccc(OCCN(C)C)c(Cl)c3C)c12)C(=O)O [Example 199, (2R)-2-{[(5Sa)-5-{3-chloro-4-[2-(dimethylamino)ethoxy]-2-methylphenyl}-6-(5-fluorofuran-2-yl)thieno[2,3-d]pyrimidin-4-yl]oxy}-3-(2-methoxyphenyl)propanoic acid] | 6.6e-09 | 0.28
8 | Cc1c(-c2c(-c3ccc(F)o3)sc3ncnc(OC(Cc4ccccc4OCc4ccnc(OCC(F)(F)F)n4)C(=O)O)c23)ccc(OCCN(C)C)c1Cl [Example 203, (2R)-2-{[(5Sa)-5-{3-chloro-4-[2-(dimethylamino)ethoxy]-2-methylphenyl}-6-(5-fluorofuran-2-yl)thieno[2,3-d]pyrimidin-4-yl]oxy}-3-(2-{[2-(2,2,2-trifluoroethoxy)pyrimidin-4-yl]methoxy}phenyl)propanoic acid] | 9.1e-09 | 0.005

Compounds with a lower IC50 (Mcl-1 protein), results first:

Row | IC50 (Mcl-1 protein) [M] | SMILES | IC50 [1] [µM]
9 | 6.1e-09 | Cc1c(-c2c(-c3ccc(F)o3)sc3ncnc(OC(Cc4ccccc4OCC(F)(F)F)C(=O)O)c23)ccc(OCCN(C)C)c1Cl [Example 200, (2R)-2-{[(5Sa)-5-{3-chloro-4-[2-(dimethylamino)ethoxy]-2-methylphenyl}-6-(5-fluorofuran-2-yl)thieno[2,3-d]pyrimidin-4-yl]oxy}-3-[2-(2,2,2-trifluoroethoxy)phenyl]propanoic acid] | 0.106
10 | 5.8e-09 | Cc1c(-c2c(-c3ccc(F)o3)sc3ncnc(OC(Cc4ccccc4OCc4ccnc(C(F)(F)F)n4)C(=O)O)c23)ccc(OCCN(C)C)c1Cl [Example 201, (2R)-2-{[(5Sa)-5-{3-chloro-4-[2-(dimethylamino)ethoxy]-2-methylphenyl}-6-(5-fluorofuran-2-yl)thieno[2,3-d]pyrimidin-4-yl]oxy}-3-(2-{[2-(trifluoromethyl)pyrimidin-4-yl]methoxy}phenyl)propanoic acid] | 0.027
11 | 5.7e-09 | Cc1c(-c2c(-c3ccc(F)o3)sc3ncnc(OC(Cc4ccccc4OCc4ccnn4C4CCCC4)C(=O)O)c23)ccc(OCCN2CCN(C)CC2)c1Cl [Example 183, (2R)-2-{[(5Sa)-5-{3-chloro-2-methyl-4-[2-(4-methylpiperazin-1-yl)ethoxy]phenyl}-6-(5-fluorofuran-2-yl)thieno[2,3-d]pyrimidin-4-yl]oxy}-3-{2-[(1-cyclopentyl-1H-pyrazol-5-yl)methoxy]phenyl}propanoic acid] | 0.012
12 | 5.6e-09 | COCCOCCOc1ccccc1CC(Oc1ncnc2sc(-c3ccc(F)o3)c(-c3ccc(OCCN4CCN(C)CC4)c(Cl)c3C)c12)C(=O)O [Example 196, (2R)-2-{[(5Sa)-5-{3-chloro-2-methyl-4-[2-(4-methylpiperazin-1-yl)ethoxy]phenyl}-6-(5-fluorofuran-2-yl)thieno[2,3-d]pyrimidin-4-yl]oxy}-3-{2-[2-(2-methoxyethoxy)ethoxy]phenyl}propanoic acid] | 0.076
13 | 5.5e-09 | Cc1c(-c2c(-c3ccc(F)o3)sc3ncnc(OC(Cc4ccccc4OCCOCCO)C(=O)O)c23)ccc(OCCN2CCN(C)CC2)c1Cl [Example 195, (2R)-2-{[(5Sa)-5-{3-chloro-2-methyl-4-[2-(4-methylpiperazin-1-yl)ethoxy]phenyl}-6-(5-fluorofuran-2-yl)thieno[2,3-d]pyrimidin-4-yl]oxy}-3-{2-[2-(2-hydroxyethoxy)ethoxy]phenyl}propanoic acid] | 0.311
14 | 5.4e-09 | Cc1c(-c2c(-c3ccc(F)o3)sc3ncnc(OC(Cc4ccccc4OCCO)C(=O)O)c23)ccc(OCCN2CCN(C)CC2)c1Cl [Example 193, (2R)-2-{[(5Sa)-5-{3-chloro-2-methyl-4-[2-(4-methylpiperazin-1-yl)ethoxy]phenyl}-6-(5-fluorofuran-2-yl)thieno[2,3-d]pyrimidin-4-yl]oxy}-3-[2-(2-hydroxyethoxy)phenyl]propanoic acid] | 0.116
15 | 5.4e-09 | COCCOCCOCCOc1ccccc1CC(Oc1ncnc2sc(-c3ccc(F)o3)c(-c3ccc(OCCN4CCN(C)CC4)c(Cl)c3C)c12)C(=O)O [Example 197, (2R)-2-{[(5Sa)-5-{3-chloro-2-methyl-4-[2-(4-methylpiperazin-1-yl)ethoxy]phenyl}-6-(5-fluorofuran-2-yl)thieno[2,3-d]pyrimidin-4-yl]oxy}-3-(2-{2-[2-(2-methoxyethoxy)ethoxy]ethoxy}phenyl)propanoic acid] | 0.07
16 | 5e-09 | Cc1c(-c2c(-c3ccc(F)o3)sc3ncnc(OC(Cc4ccccc4OCc4ccncn4)C(=O)O)c23)ccc(OCCN2CCN(C)CC2)c1Cl [Example 179, (2R)-2-{[(5Sa)-5-{3-chloro-2-methyl-4-[2-(4-methylpiperazin-1-yl)ethoxy]phenyl}-6-(5-fluorofuran-2-yl)thieno[2,3-d]pyrimidin-4-yl]oxy}-3-[2-(pyrimidin-4-ylmethoxy)phenyl]propanoic acid] | 0.03
17 | 4.3e-09 | Cc1c(-c2c(-c3ccc(F)o3)sc3ncnc(OC(Cc4ccccc4OCc4ccnn4CC4CC4)C(=O)O)c23)ccc(OCCN2CCN(C)CC2)c1Cl [Example 186, (2R)-2-{[(5Sa)-5-{3-chloro-2-methyl-4-[2-(4-methylpiperazin-1-yl)ethoxy]phenyl}-6-(5-fluorofuran-2-yl)thieno[2,3-d]pyrimidin-4-yl]oxy}-3-(2-{[1-(cyclopropylmethyl)-1H-pyrazol-5-yl]methoxy}phenyl)propanoic acid] | 0.013
18 | 3.1e-09 | Cc1c(-c2c(-c3ccc(F)o3)sc3ncnc(OC(Cc4ccccc4OCc4ccnc(-c5ccsc5)n4)C(=O)O)c23)ccc(OCCN2CCN(C)CC2)c1Cl [Example 173, (2R)-2-{[(5Sa)-5-{3-chloro-2-methyl-4-[2-(4-methylpiperazin-1-yl)ethoxy]phenyl}-6-(5-fluorofuran-2-yl)thieno[2,3-d]pyrimidin-4-yl]oxy}-3-(2-{[2-(thiophen-3-yl)pyrimidin-4-yl]methoxy}phenyl)propanoic acid] | 0.004
19 | 2.8e-09 | CCCn1nccc1COc1ccccc1CC(Oc1ncnc2sc(-c3ccc(F)o3)c(-c3ccc(OCCN4CCN(C)CC4)c(Cl)c3C)c12)C(=O)O [Example 187, (2R)-2-{[(5Sa)-5-{3-chloro-2-methyl-4-[2-(4-methylpiperazin-1-yl)ethoxy]phenyl}-6-(5-fluorofuran-2-yl)thieno[2,3-d]pyrimidin-4-yl]oxy}-3-{2-[(1-propyl-1H-pyrazol-5-yl)methoxy]phenyl}propanoic acid] | 0.02
